This is an account of results in patent US20240400584A1, “COMPOUNDS AND METHODS FOR MODULATING SPLICING” (REMIX THERAPEUTICS INC., priority 2021, published 2024).

Assay [1] concerns MYB. The assay is described as follows: RT-qPCR splicing assay, MYB AJ/CJ mRNA. In kind it is cell-based. The following applies: Homo sapiens, A673 or K562 cells, 24 hours; for IC50: decrease in canonical junction mRNA; for AC50: increase in alternative junction mRNA. The procedure, abridged:
(§1)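 Cells: A673 (DMEM/10% FBS) or K562 (IMDM/10% FBS). Dosing: 11-pt 3-fold, top 10 uM final, DMSO ≤0.25%, 24 h, 37° C. Readout: one-step RT-qPCR on lysate, CJ vs AJ isoforms; ΔCt vs housekeeper, ΔΔCt vs DMSO, 2^(−ΔΔCt) RQ → % response.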
(In general: Quantitative PCR measures a nucleic acid by following its amplification.)

In assay [2] the test system is HTT. The assay is described as follows: RT-qPCR splicing assay, HTT AJ/CJ mRNA. In kind it is cell-based, human. The following applies: A673 or K562 cells; for AC50: increase in alternative junction mRNA; for IC50: decrease in canonical junction mRNA. The procedure, abridged:
as §1

In assay [3] the test system is HTT. Nature of the assay: Gene panel canonical junction qPCR assay, HTT CJ mRNA (Table 7). In kind it is cell-based, human. The note with it: Homo sapiens, read-out: HTT CJ mRNA decrease IC50. The procedure, abridged: (§2)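 A673 or K562 cells treated with compound; canonical exon-junction mRNA measured by RT-qPCR with junction-spanning primers/probe, normalised to GAPDH, GUSB or PPIA and DMSO (ΔΔCt, RQ). Percentage response set from fixed ΔCt assay windows, fitted to a 4-parameter logistic; IC50 is concentration giving 50% CJ decrease.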

For assay [4], the system named is SMN2. The assay is described as follows: Gene panel canonical junction qPCR assay, SMN2 CJ mRNA (Table 7). Format: cell-based. The following applies: Homo sapiens, read-out: SMN2 CJ mRNA decrease IC50. Summed up: as §2

In the case of `C[C@@H]1C[C@H](N(C)c2ccc3c(c2)OCc2cc(-c4cn[nH]c4)ccc2-3)CCN1` [Compound 101], in assay [1], the IC50 is above 10 µM and the AC50 was 1 to 10 µM. In assay [2] (Homo sapiens, 24 h), the AC50 is above 10 µM.

With `C[C@H]1C[C@H](N(C)c2ccc3c(c2)OCc2cc(-c4cn[nH]c4)ccc2-3)CCN1` [Compound 102], the IC50 in assay [3] is above 10 µM; in assay [1] it was above 10 µM; in assay [2] (Homo sapiens, 24 h) it was above 10 µM. Besides, the concentration at half-maximal activity (AC50) in assay [1] was 1 to 10 µM; in assay [2] (Homo sapiens, 24 h) it was above 10 µM.

On to `CN(c1ccc2c(c1)OCc1cc(-c3cn[nH]c3)ccc1-2)[C@@H]1C[C@H]2CC[C@@H](C1)N2` [Compound 104], for which the IC50 in assay [3] is above 10 µM; in assay [1] it was above 10 µM; in assay [2] (Homo sapiens, 24 h) it was above 10 µM. For the same molecule, the AC50 is above 10 µM in assay [1] and above 10 µM in assay [2] (Homo sapiens, 24 h).

For `CN(c1ccc2c(c1)OCc1cc(-n3cccn3)ccc1-2)[C@@H]1C[C@H]2CC[C@@H](C1)N2` [Compound 105], the IC50 in assay [4] was above 10 µM; in assay [3], above 10 µM; in assay [1], above 10 µM; in assay [2] (Homo sapiens, 24 hours), above 10 µM. The AC50 in assay [1] was above 10 µM; in assay [2] (Homo sapiens, 24 hours), above 10 µM.

`CN(c1ccc2c(n1)OCc1cc(-c3cn[nH]c3)ccc1-2)[C@@H]1C[C@H]2CC[C@@H](C1)N2` [Compound 108]: the IC50 in assay [4] was below 0.1 µM; in assay [3] it was below 0.1 µM; in assay [1], 0.1 to 1 µM; in assay [2] (Homo sapiens, 24 h), below 0.1 µM. In addition, the concentration at half-maximal activity (AC50) in assay [1] was 1 to 10 µM; in assay [2] (Homo sapiens, 24 h) it was below 0.1 µM.

On to `CN(c1ccc2c(c1)CCOc1cc(-n3cccn3)ccc1-2)[C@@H]1C[C@H]2CC[C@@H](C1)N2` [Compound 113], for which the IC50 in assay [4] was above 10 µM; in assay [3], above 10 µM; in assay [1] it was above 10 µM; in assay [2] (Homo sapiens, 24 h), above 10 µM. In addition, the AC50 was above 10 µM in assay [1] and above 10 µM in assay [2] (Homo sapiens, 24 h).

In the case of `CN(c1ccc2c(n1)OCc1cc(-c3cn[nH]c3)ccc1-2)C1CCNCC1` [Compound 116], the 50% inhibitory concentration (IC50) lay in the range of 0.1 to 1 µM in assay [4]; 0.1 to 1 µM in assay [3]; 1 to 10 µM in assay [1]; 0.1 to 1 µM in assay [2] (Homo sapiens, 24 h). The AC50 in assay [1] lay within 1 to 10 µM; in assay [2] (Homo sapiens, 24 h), 1 to 10 µM.

As to `CN(c1ccc2c(c1)COc1cc(-n3cccn3)ccc1-2)C1CC(C)(C)NC(C)(C)C1` [Compound 117], the IC50 in assay [4] was above 10 µM; in assay [3] it was above 10 µM; in assay [1], 1 to 10 µM; in assay [2] (Homo sapiens, 24 h), above 10 µM. The AC50 in assay [1] was above 10 µM; in assay [2] (Homo sapiens, 24 h) it was above 10 µM.

In the case of `CC1(C)CC(Nc2ccc3c(c2)COc2cc(-n4cccn4)ccc2-3)CC(C)(C)N1` [Compound 118], the IC50 is above 10 µM in assay [4]; above 10 µM in assay [3]; above 10 µM in assay [1]; above 10 µM in assay [2] (Homo sapiens, 24 h). For the same molecule, the AC50 was above 10 µM in assay [1] and above 10 µM in assay [2] (Homo sapiens, 24 h).

`CN(c1ccc2c(n1)COc1cc(-c3cn[nH]c3)ccc1-2)[C@@H]1C[C@H]2CC[C@@H](C1)N2` [Compound 121]: the IC50 in assay [4] fell in the range of 0.1 to 1 µM; in assay [3], 0.1 to 1 µM; in assay [1], 1 to 10 µM; in assay [2] (Homo sapiens, 24 h), 0.1 to 1 µM. Besides, the AC50 was in the range of 1 to 10 µM in assay [1] and 0.1 to 1 µM in assay [2] (Homo sapiens, 24 h).

As to `CN(c1ccc2c(n1)COc1cc(-n3cccn3)ccc1-2)[C@@H]1C[C@H]2CC[C@@H](C1)N2` [Compound 124], the IC50 in assay [4], in assay [3], in assay [1] and in assay [2] (24 hours) was 1 to 10 µM in each case. The half-maximal activity concentration (AC50) was above 10 µM in assay [1] and 1 to 10 µM in assay [2] (24 hours).

As to `CN(c1ccc2c(n1)COc1cc(-n3cccn3)ccc1-2)C1CC(C)(C)NC(C)(C)C1` [Compound 125], the IC50 was above 10 µM in assay [4]; above 10 µM in assay [3]; above 10 µM in assay [1]; above 10 µM in assay [2] (Homo sapiens, 24 h). Also, the AC50 in assay [1] is above 10 µM; in assay [2] (Homo sapiens, 24 h), above 10 µM.

For `CN(c1ccc2c(n1)CCOc1cc(-n3cccn3)ccc1-2)C1CC(C)(C)NC(C)(C)C1` [Compound 129], the IC50 in assay [4] is above 10 µM; in assay [3], above 10 µM; in assay [1], above 10 µM; in assay [2] (Homo sapiens, 24 h), above 10 µM. For the same molecule, the AC50 was above 10 µM in assay [1] and above 10 µM in assay [2] (Homo sapiens, 24 h).

By IC50 is commonly meant the point on the concentration scale where inhibition reaches its midpoint. For orientation: AC50 means the midpoint of the concentration-response curve, whichever way the signal moves. A low value points to activity at low concentration.
